Test results published in publication PMC9881157 (2023).

Tests used:
Assay in all cases: RNA-DRaCALA titration
[1] = test system: C21 (RNA, riboswitch) UAAGAGGCUAACUAGGGUUCCGAUGGUUUCAUGCUGGUCCAAGCGUUAGCAAACAUACUGAGGAAGGUAUGUUACACCGUUAGUACAAAAGGCUCGGCGGGAGGUCUUAUCCUUAAAAAAGCCACCGCCACCGCCACCGCCACCGCCACCGCCACCGCC; settings: 10 mM MgCl2; 20 mM Tris-HCl pH 7.5, 37 °C; 10 nM 32P-ligand
[2] = test system: To-B (T. oceani ilvE, biotinylated) (RNA, riboswitch) AGGAAGUGUACCUUAGGGUUCCGGCCAUAAGGCGUCAGCGACCGAGCGGUACAAUCCGGGGAAACCCGGAACACCGUGAGCAUAAAAGGCUCCAGCGGCAAGUUCCUAAAAGAC; settings: 10 mM MgCl2; 20 mM Tris-HCl pH 7.5, 37 °C; 1 nM 32P-ppGpp
[3] = test system: C16 (RNA, riboswitch) CAGAAGGGUACCUAGGGUUCCGUCCAUUUGAUUCAAGGGAGUCUGGACCAAGCGGUAUCGGCACCGGGAUAUGGUGUACACCGUGGGGAUAAAAGCCUCCAGCGGCAGGUUCUGAUGCAAAAAAAGCCACCGCCACCGCCACCGCCACCGCCACCGCCACCGCC; settings: 10 mM MgCl2; 20 mM Tris-HCl pH 7.5, 37 °C; 10 nM 32P-ligand

| Kd [1] | Kd [2] | Kd [3] | Compound |
| --- | --- | --- | --- |
| 654 ± 121 nM | 22.1 ± 1.6 nM | 33 ± 3.7 nM | Nc1nc2c(ncn2[C@@H]2O[C@H](COP(=O)(O)OP(=O)(O)O)[C@@H](OP(=O)(O)OP(=O)(O)O)[C@H]2O)c(=O)[nH]1 |
| – | – | 137 ± 17 nM | Nc1nc2c(ncn2[C@@H]2O[C@H](COP(=O)(O)OP(=O)(O)OP(=O)(O)O)[C@@H](OP(=O)(O)OP(=O)(O)O)[C@H]2O)c(=O)[nH]1 |
